Data taken from patent US8415307B1, “Antibiotic compositions for the treatment of gram negative infections” (priority 2010, dated 2013).
*1 amine or outer side, *2 acyl side, *3 side chain or, on linkers, in order; H or OH if unused. Where a SMILES comes first, the peptide text is derived from it. Bridges are numbered along the chain shown (N, C = ends). [ ]: non-standard residue; d: D form. The star is where a group is joined. ξ: configuration not given here. Thr(3ξ) = CC(O)[C@H](N)C(=O)O; NH(2-ClPh) = Clc1ccccc1N*; X1 = CC[C@H](C)CCCCC(=O)*; dDab = NCC[C@@H](N)C(=O)O; Dab = NCC[C@H](N)C(=O)O; CO = O=C([*:1])[*:2]; ξDab = NCCC(N)C(=O)O

Key:
[1] = test system: A. baum; assay: MIC50 and MIC90, panel of Gram negative bacterial strains (CLSI broth microdilution); assay type: cell-based, A. baumanni; design: key to A. baum MIC50 / A. baum MIC90: A: a measured MIC value equal to that of polymyxin B; a measured MIC value less than the corresponding MIC value measured for polymyxin B; a measured MIC value greater than the corresponding MIC value measured for polymyxin B; settings: class relative to polymyxin B; some strains multi-drug resistant
Protocol: (§1) The potency and spectrum of Compound 5 was studied using a panel of Gram negative bacterial strains.
(§2) MIC testing can be performed according to Clinical and Laboratory Standards Institute (CLSI) M7-A7 (2006) broth microdilution methods. Unless otherwise indicated, MIC values are provided in units of micrograms per milliliter.
(§3) One day prior to testing, individual colonies were isolated by streaking onto rich, non-selective Tryptic Soy agar with 5% lysed sheeps blood (TSAB) with incubation at 35-37° C. for 18-24 hours.
(§4) Cultures were prepared by touching 3-5 colonies into 3 mL of cation-adjusted Mueller Hinton Broth (caMHB) in a 14-mL tube (caMHB was prepared and sterilized according to manufacturer's specifications).
(§5) OD600 of growing cultures was measured and adjusted to approximately 10^5 colony forming units per mL (CFU/mL) in caMHB for MIC inoculation (approximately OD600 0.001).
(§6) Diluted cultures were used to inoculate 50 μL per well in broth microdilution assays (final volume 100 μl per well; compounds were prepared in two-fold dilutions).
(§7) Plates were incubated 16-20 hours at 37° C., with shaking at 200 rpm.
(§8) OD600 was determined for all wells. Growth was defined as OD600>0.1. MICs were defined as the lowest concentration producing no visible turbidity (OD600<0.1).

[2] = test system: K. pneu; assay: as above; assay type: cell-based, K. pneumonia; design: key to K. pneu MIC50 / K. pneu MIC90: A: a measured MIC value equal to that of polymyxin B; a measured MIC value less than the corresponding MIC value measured for polymyxin B; a measured MIC value greater than the corresponding MIC value measured for polymyxin B; settings: class relative to polymyxin B; some strains multi-drug resistant
Protocol: as §1, §2, §3, §4, §5, §6, §7, §8

[3] = test system: P. aeruginosa #44; assay: MICs for P. aeruginosa #44 in the presence of surfactant; assay type: cell-based; design: key: A: a MIC value measurement that is the same as that observed for polymyxin B; a MIC value measured that is lower than the comparable value observed for polymxin B; a MIC value measured that is higher than the comparable value observed for polymyxin B; settings: class relative to polymyxin B; for MIC P. aeruginosa #44, 10% surfactant: 10% surfactant (Survanta) in caMHB; for MIC P. aeruginosa #44, 40% surfactant: 40% surfactant (Survanta) in caMHB
Protocol: (§9) Antibacterial potency can be assessed by broth microdilution according to CLSI guidelines, plates can be incubated at 37° C., and aeration (rotation at 200 rpm) can be employed. In some assays, surfactant (Survanta, Abbott Laboratories) can be added to give a final concentration of 1, 10 and 40% in caMHB. Native polymyxin A, polymyxin B and the comparator compound of Formula II (polymyxin B decapeptide with an o-chlorophenyl urea tail) were included for comparison.

[4] = test system: P. aeruginosa 44; assay: Neutropenic mouse lung infection model; assay type: in vivo; settings: mouse lung model, 8 through 20 mg/kg dose levels
Protocol: Compound of Formula (Ia) was tested in a murine thigh model. For the thigh model, female CD-1 mice were rendered neutropenic by IP injection on days −4 and −1 with 150 and 100 mg/kg cyclophosphamide, respectively. On day 0 mice were infected with 1×10^7 colony-forming units (cfu) of A. baumannii 1570 in one thigh muscle, and then administered compound SC in a dose ranging from 2 to 12 mg/kg at 1 and 6 hours post-infection.
The mouse lung model was run in the same manner as the thigh infection model, except that mice were infected IN with 1×10^7 cfu of P. aeruginosa 44 on day 0. Doses administered in the lung study ranged from 8 to 20 mg/kg. The ED−3log10 was based on cfu determination from the lung tissue 24 hours post-infection.

[5] = test system: E. coli; assay: MIC50 and MIC90, panel of Gram negative bacterial strains (CLSI broth microdilution); assay type: cell-based; design: key to E. coli MIC50 / E. coli MIC90: A: a measured MIC value equal to that of polymyxin B; a measured MIC value less than the corresponding MIC value measured for polymyxin B; a measured MIC value greater than the corresponding MIC value measured for polymyxin B; settings: class relative to polymyxin B; some strains multi-drug resistant
Protocol: as §1, §2, §3, §4, §5, §6, §7, §8

[6] = test system: P. aeru; assay: as above; assay type: cell-based, P. Aeruginosa; design: key to P. aeru MIC50 / P. aeru MIC90: A: a measured MIC value equal to that of polymyxin B; a measured MIC value less than the corresponding MIC value measured for polymyxin B; a measured MIC value greater than the corresponding MIC value measured for polymyxin B; settings: class relative to polymyxin B, some strains multi-drug resistant
Protocol: as §1, §2, §3, §4, §5, §6, §7, §8

[7] = test system: K. pneumoniae 1800 (PMX-resistant); assay: MIC against the primary screening panel (broth microdilution); assay type: cell-based; design: key: A: a MIC value measurement that is the same as that observed for polymyxin B; a MIC value measured that is lower than the comparable value observed for polymxin B; a MIC value measured that is higher than the comparable value observed for polymyxin B; settings: class relative to polymyxin B
Protocol: as §9

[8] = test system: P. aeruginosa 44; assay: as above; assay type: cell-based; design: key: A: a MIC value measurement that is the same as that observed for polymyxin B; a MIC value measured that is lower than the comparable value observed for polymxin B; a MIC value measured that is higher than the comparable value observed for polymyxin B; settings: class relative to polymyxin B
Protocol: as §9

[9] = test system: A. baumannii 1570; assay: as above; assay type: cell-based; design: key: A: a MIC value measurement that is the same as that observed for polymyxin B; a MIC value measured that is lower than the comparable value observed for polymxin B; a MIC value measured that is higher than the comparable value observed for polymyxin B; settings: class relative to polymyxin B
Protocol: as §9

[10] = test system: K. pneumoniae 933; assay: as above; assay type: cell-based; design: key: A: a MIC value measurement that is the same as that observed for polymyxin B; a MIC value measured that is lower than the comparable value observed for polymxin B; a MIC value measured that is higher than the comparable value observed for polymyxin B; settings: class relative to polymyxin B
Protocol: as §9

[11] = test system: E. coli; assay: MIC50-90 against small panels (n = 35); assay type: cell-based; design: key: A: a MIC value measurement that is the same as that observed for polymyxin B; a MIC value measured that is lower than the comparable value observed for polymxin B; a MIC value measured that is higher than the comparable value observed for polymyxin B; settings: small panel n = 35; class relative to polymyxin B
Text: (§10) MIC's refer to the concentration of each antimicrobial agent required to inhibit the growth of a bacterial isolate, as well as the corresponding concentrations required to inhibit 50% and 90% of each group of microorganisms tested [MIC50 and MIC90, respectively, consistent with definitions in the “Instructions to Authors” for Antimicrobial Agents and Chemotherapy (Antimicrobial Agents and Chemotherapy, January 2010, p. 1-23, Vol. 54, No. 1, incorporated herein by reference)]. When only up to nine isolates of a species are tested, MIC's are reported as the MIC range of each antimicrobial agent tested. MIC values provided as numerical ranges for testing of a single bacterial strain indicate the range of MIC values obtained in repeated tests of the indicated bacteria strain.
as §9

[12] = test system: A. baumannii; assay: MIC50-90 against small panels (n = 35); assay type: cell-based; design: key: A: a MIC value measurement that is the same as that observed for polymyxin B; a MIC value measured that is lower than the comparable value observed for polymxin B; a MIC value measured that is higher than the comparable value observed for polymyxin B; settings: small panel n = 35; class relative to polymyxin B
Text: as §10, §9

[13] = test system: K. pneumoniae; assay: MIC50-90 against small panels (n = 35); assay type: cell-based; design: key: A: a MIC value measurement that is the same as that observed for polymyxin B; a MIC value measured that is lower than the comparable value observed for polymxin B; a MIC value measured that is higher than the comparable value observed for polymyxin B; settings: small panel n = 35; class relative to polymyxin B
Text: as §10, §9

[14] = test system: P. aeruginosa; assay: MIC50-90 against small panels (n = 35); assay type: cell-based; design: key: A: a MIC value measurement that is the same as that observed for polymyxin B; a MIC value measured that is lower than the comparable value observed for polymxin B; a MIC value measured that is higher than the comparable value observed for polymyxin B; settings: small panel n = 35; class relative to polymyxin B
Text: as §10, §9

[15] = Acute toxicity testing in rats; assay type: in vivo, Sprague-Dawley rat; settings: IV dose of 1 mg/kg, similar experiment
Protocol: One female Sprague-Dawley rat was administered a 1 mg/kg dose of the test Compound 5. Clinical observations were taken immediately following the administration of compound and at 0.5, 1, 2 and 4 hours post-dose.

Structure (SMILES) | A. baum MIC50 [1] | A. baum MIC90 [1] | K. pneu MIC50 [2] | K. pneu MIC90 [2] | MIC P. aeruginosa #44, 0% surfactant [3] | MIC P. aeruginosa #44, 10% surfactant [3] | MIC P. aeruginosa #44, 40% surfactant [3] | Lungs cleared within one log10 of limit of detection [4] | E. coli MIC50 [5] | E. coli MIC90 [5] | MIC K. pneumoniae 1800 (PMX-resistant) [7] | MIC P. aeruginosa 44 [8] | MIC A. baumannii 1570 [9] | MIC K. pneumoniae 933 [10] | E. coli MIC50 [11] | E. coli MIC90 [11] | A. baumannii MIC50 [12] | A. baumannii MIC90 [12] | K. pneumoniae MIC50 [13] | K. pneumoniae MIC90 [13] | other results
CC(C)C[C@@H]1NC(=O)[C@@H](Cc2ccccc2)NC(=O)[C@H](CCN)NC(=O)C(NC(=O)[C@H](CCN)NC(=O)[C@@H](NC(=O)[C@H](CCN)NC(=O)Nc2ccccc2Cl)C(C)O)CCNC(=O)[C@H](C(C)O)NC(=O)[C@H](CCN)NC(=O)C(CCN)NC1=O (stereo partly shown) [Formula (II) comparator] ({NH(2-ClPh)-CO}-[Dab][Thr(3ξ)][Dab][ξDab][Dab][dF]L[ξDab][Dab][Thr(3ξ)]; lactam 4-C) | C | C | C | C | C | B | A | not seen | C | C | C | C | C | C | C | C | C | C | C | C | P. aeru MIC50 ([6]; listed as 2): B and A; P. aeru MIC90 ([6]; listed as 2): A and C; P. aeruginosa MIC50 [14]: B; P. aeruginosa MIC90 [14]: A
CC[C@H](C)CCCCC(=O)N[C@@H](CCN)C(=O)N[C@H](C(=O)N[C@H](CCN)C(=O)N[C@H]1CCNC(=O)[C@H]([C@@H](C)O)NC(=O)[C@H](CCN)NC(=O)[C@H](CCN)NC(=O)[C@H]([C@@H](C)O)NC(=O)[C@@H](CC(C)C)NC(=O)[C@H](CCN)NC1=O)[C@@H](C)O [Native Polymyxin A, Polymyxin A] (X1-[Dab]T[dDab][Dab][Dab][dL]T[Dab][Dab]T; lactam 4-C) | A | A | C | C | C | B | B | not observed | B | A | C | A | C | B | B | A | A | A | C | C | Clinical signs [15]: no clinical signs were observed; P. aeru MIC50 [6]: A; P. aeru MIC90 [6]: C; P. aeruginosa MIC50 [14]: A; P. aeruginosa MIC90 [14]: C
